From PubChem BioAssay (NCI)
Several values for one entry are separate records, joined by “and”; a condition that tells them apart may be missing. Identical values can stand only once.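 Assay format: 96-well plates, 48-hour exposure. Here, GI50 denotes the concentration required for 50% inhibition of growth. TGI: concentration producing complete growth inhibition.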

Assays:
Assay in all cases: growth of human tumour cells (NCI), 48 h
DLD-1 colon = test system: DLD-1 colon
DMS 273 small cell lung = test system: DMS 273 small cell lung
KM20L2 colon = test system: KM20L2 colon
LXFL 529 NSCLC = test system: LXFL 529 NSCLC
M19-MEL melanoma = test system: M19-MEL melanoma
SNB-78 CNS = test system: SNB-78 CNS
RXF-631 renal = test system: RXF-631 renal
XF 498 CNS = test system: XF 498 CNS
MDA-N = test system: MDA-N

SMILES	TGI (DLD-1 colon) [µM]	TGI (DMS 273 small cell lung) [µM]	TGI (KM20L2 colon) [µM]	TGI (LXFL 529 NSCLC) [µM]	TGI (M19-MEL melanoma) [µM]	TGI (SNB-78 CNS) [µM]	TGI (RXF-631 renal) [µM]	TGI (XF 498 CNS) [µM]	TGI (MDA-N)	also measured
CCOP(=O)(OCC)C(C(=O)OC)C(=O)C(=O)Nc1ccc(Cl)cc1Cl (configuration not stated)	> 100	> 100	> 100	> 100	> 100	> 100				
Cc1cc2c(c(C(N)=O)c1C)-c1ccccc1C2=O	> 100	> 100	> 100	> 100	> 100	> 100	> 100			
COC(=O)/C([Se]c1c(C)cc(C)cc1C)=C(/[Se]c1c(C)cc(C)cc1C)C(=O)OC	> 100	> 100	> 100	> 100	> 100	> 100	> 100			
CCOC(=O)NC(=O)c1cn(C2CCCCC2)c(=O)[nH]c1=O	> 100	> 100	> 100	> 100	> 100	> 100	> 100	> 100		
CC(=O)N1CCN(c2ccc(OCC3COC(Cn4ccnc4)(c4ccc(Cl)cc4Cl)O3)cc2)CC1 (configuration not stated)	> 100	61.4	> 100	> 100	45.1					
CCCC(=O)C1=C(O)C(Cc2c(O)c(C)c(O)c(C(=O)CCC)c2O)=C(O)C(C)(C)C1=O									> 50 µM	
COc1c(C)n(CCO)ccc1=O	> 100	> 100	> 100	> 100	> 100	> 100	> 100	> 100		
COc1ccc(CC2c3c(cc(OC)c(OC)c3OC)CCN2C)cc1OC (configuration not stated)	> 100		> 100	> 100		> 100		> 100		
Cc1[nH]c2ccccc2c1C1Cc2ccccc2N1C(=O)C#Cc1ccc([N+](=O)[O-])cc1 (configuration not stated)	> 100		> 100	> 100		> 100		> 100		
O=C(N/C(=C\c1ccc([N+](=O)[O-])cc1)c1nc2ccccc2[nH]1)c1ccccc1	> 100		> 100	> 100	> 100	> 100	> 100			
COC(=O)C1C(O)C(C(=O)OC)C(C)N(C)C1C (configuration not stated)									> 100 µM	
CC(C)=C1CCC(CN(C)C)C1=O (configuration not stated)	36.8		27.7	25.4	> 100		> 100			
COc1cc(/C=C2\[C@H]3c4c(c(OC)c(C)c(OC)c4OC)CC(C(=O)N2Cc2ccccc2)N3C)c(OC)c(C)c1OC	> 100	38.6	37.2	43.9	33.1					
CCC(C)(O)c1cnc(CC(C)C)c(=O)n1O (configuration not stated)									> 100 µM	
COc1ccc(C(=O)c2cc(OC)c(OC)c(OC)c2)cc1OC									> 100 µM	
ClC(Cl)=C1C(=C(Cl)Cl)C(Cl)(Cl)C1(Cl)Cl	3.3	9.87	11.3	2.47	9.1	7.71	13.9		2.81 µM	
Nc1c(-c2ccccc2-c2c(N)[n+]([O-])c3ccccc3[n+]2[O-])[n+]([O-])c2ccccc2[n+]1[O-]	> 100	38.7	> 100	> 100	60.3	> 100				
CC(C)CC(C/C=C1/CC(CO)(COC(=O)C(C)(C)C)OC1=O)CC(C)C (configuration not stated)									6.28 µM and 17.6 µM	GI50 (MDA-N): 0.2 µM and 0.849 µM
O=C(CC(=O)C1CCOC1=O)C(=O)Nc1cccc(Cl)c1 (configuration not stated)	> 100	> 100	> 100	> 100	> 100	> 100	> 100			
CCN1c2ccccc2-c2c3c1cc(C)cc3c1ccccc1[n+]2CC	17.8	1.58		1.86	1.27	12	43.4			
Nc1ccccc1O.O.O=C(O)C1[O][Sb][O]C1C(=O)O (configuration not stated)									42.2 µM	GI50 (MDA-N): 17.4 µM
O=C(/C=C/c1ccccc1)c1ccccc1									> 10 µM	
Cn1c(=O)nc2n(-c3cc(C(F)(F)F)cc(C(F)(F)F)c3)c3ccccc3nc-2c1=O		> 100	> 100		29.5	> 100		> 100		

SMILES	TGI (DLD-1 colon) [µM]	TGI (DMS 273 small cell lung) [µM]	TGI (KM20L2 colon) [µM]	TGI (LXFL 529 NSCLC) [µM]	TGI (M19-MEL melanoma) [µM]	TGI (SNB-78 CNS) [µM]	TGI (RXF-631 renal) [µM]	TGI (XF 498 CNS) [µM]	TGI (MDA-N)	also measured
CN(C(=O)c1ccc([N+](=O)[O-])cc1)c1ccccc1	> 100	> 100	> 100	> 100	> 100	> 100	> 100	> 100		
COC(=O)C(=O)C(C(C)=O)C(=O)NCc1ccc(OC)c(OC)c1 (configuration not stated)	> 100	> 100	> 100	> 100	> 100	> 100	> 100	> 100		
O=c1[nH]cnc(NC2C=C(CO)C(O)C2O)c1[N+](=O)[O-] (configuration not stated)	> 100	> 66.1	> 100	> 100	> 100	> 100		> 100		
CC(C)(C)c1ccc2c(c1)S(=O)(=O)Nc1ccc(Cl)cc1NS(=O)(=O)c1cc(C(C)(C)C)ccc1OCCOCCOCCO2	> 100	> 100			> 100	> 100				
Cc1cccc(C2=C/C(=C(\SS/C(C(=O)c3ccc(OCC(=O)O)c(Cl)c3Cl)=C3\C=C(c4cccc(C)c4)SS3)C(=O)c3ccc(OCC(=O)O)c(Cl)c3Cl)SS2)c1	> 100	83.6	> 100		> 60.1	80.6		54.6		
CCC1CN2CCc3cc(OC)c(OC)cc3C2CC1CC1c2cc(OC)c(OC)cc2CCN1C(=O)C1CCCN1 (configuration not stated)	77.4	> 100		64.4	36.6	> 100	90.8	39.2		
COc1cccc(/C=N/[N-]C(=O)c2ccncc2)c1[O-].COc1cccc(/C=N/[N-]C(=O)c2ccncc2)c1[O-].[O]=[U](=[O])([OH2+])[OH2+]	> 100	> 56.6	> 100	> 100	> 100	> 100		37.6		GI50 (DLD-1 colon): 4.19 µM; GI50 (DMS 273 small cell lung): 4.2 µM; GI50 (KM20L2 colon): 3.14 µM; GI50 (LXFL 529 NSCLC): > 33.7 µM; GI50 (M19-MEL melanoma): 5.83 µM; GI50 (SNB-78 CNS): > 87.7 µM; GI50 (XF 498 CNS): 4.75 µM
CN(C)C(=S)SSC(=S)N(C)C	> 64	> 100	> 100	> 100	> 40	> 100	> 100	> 88.3	30.3 µM and 50.9 µM	
CCC/C=C/C=C/C1CC(O)C(O)C(=O)C1CO (configuration not stated)									> 100 µM	
NC(=O)C(=O)CC(=O)c1ccccc1NC1=CC(=O)C(=O)c2ccccc21	> 100	> 100	> 100	> 100	22.8	> 100	> 100	> 100		
Nc1nc(-c2ccc(Cl)c([N+](=O)[O-])c2)cs1	> 100	> 100	> 100	> 100	> 100	> 100	> 100	86.6		
Nc1ccccc1C(=O)/C=C/c1c(O)ccc2ccccc12	> 100	> 100	> 100	> 100	43.4	> 100	> 100			
c1ccc2c(c1)[nH]c1c2cc[n+]2cc3c(cc12)CCCC3									3.21 µM	
CC1CC(O)C(=O)C(O[C@@H]2C[C@@H]3CC[C@@H]4[C@H](CC[C@]5(C)C(C6=CC(=O)OC6)CC[C@]45O)[C@@]3(C=O)C[C@H]2O)O1 (some centres not stated)									0.199 µM	
COC(=O)/C(=N/O)C(C(=O)C=C(C)C)C(=O)C(=O)Nc1nc2ccc([N+](=O)[O-])cc2s1 (configuration not stated)		> 100	> 100	> 100	> 100	> 100		> 100		
O=[N+]([O-])c1cccc(C2=NOC(C3CCCCC3)C2)c1 (configuration not stated)	> 100	> 100		> 100	> 100	> 100	> 100			
CC1=NN(C(=O)CC(=O)Nc2ccccc2F)C(=O)C1N=Nc1ccccc1[N+](=O)[O-] (configuration not stated)	> 100	> 100	> 100	> 100	33.6	> 100		> 100		
COC(c1ccc(C(C)(C)C)cc1)(c1ccc(C(C)(C)C)cc1)c1ccc(C(C)(C)C)cc1									> 100 µM	
COc1ccc(C(CC(=O)c2ccc3c(c2)OCO3)c2c(O)c3ccccc3oc2=O)cc1OC (configuration not stated)									> 100 µM	
Cc1ccc(C)c(N2C/C(=N\NC(=O)CC#N)C(c3nc4ccccc4s3)C(=O)C2=O)c1 (configuration not stated)	> 100	> 100	> 100	> 100	> 100	> 100		> 100		
Cc1ccccc1C1=[N+]([O-])c2ccc(Cl)cc2C1=O	19.6		16.9	24.3	21.2		16.8	14.3		
OC(c1cc(-c2ccc(C(F)(F)F)cc2)nc(C(F)(F)F)c1)C1CCCCN1 (configuration not stated)									3.04 µM	
